In patent US12104181B2, “Compositions and methods for treating viral infections targeting TRIM7” (THE BOARD OF REGENTS OF THE UNIVERSITY OF TEXAS SYSTEM, priority 2021, dated 2024):
Residues, ends and D or L forms follow the SMILES beside them. *: point of attachment. Cbz = O=C(OCc1ccccc1)*

Columns and labels:
[1] = test system: coxsackievirus B3 (CVB3-GFP); format: cell-based; details: HeLa cells, replicate R1; for Percent Infected R1: GFP-positive cells within RFP-positive gate
[2] = test system: CVB3-GFP; format: cell-based, coxsackievirus B3; details: for CVB3 infectivity in control HeLa-Fluc cells: 1 MOI, 8 hpi
[3] = test system: vesicular stomatitis virus; format: cell-based
[4] = test system: CVB3 HA-2BC; assay: Viral protein degradation in co-transfected 293T cells, Western blot; format: cell-based; details: MG132 10 μM at 24 hours post-transfection for 6 hours
From the text: Since TRIM7 binds 2C and 2BC, it was next tested whether TRIM7 targets either protein for degradation. […] 293T cells were co-transfected with plasmids expressing HA-tagged CVB3 viral proteins and 3×Flag-tagged TRIM7 (TRIM7-3F) or Fluc-expressing vector. […] Moreover, proteasome inhibition by MG132 restored HA-2BC protein in the presence of TRIM7 (FIG. 4F). Similar results were obtained with 2BC from other TRIM7-targeted enteroviruses, including EV71 and EVD68, whereas 2BC from TRIM7-insensitive MenV was unaffected (FIGS. 4G-4H). Accordingly, 2BC from EV71, but not MenV, interacted with TRIM7 in pulldown assays (FIG. 4I).
Protein lysate preparation and Western blot. Tissue culture cells were lysed in Nonidet P-40 (NP-40) buffer (50 mM Tris pH 7.4, 150 mM NaCl, 1% (v/v) NP-40, 1 mM EDTA, protease inhibitor cocktail) and incubated on ice for 30 min, followed by centrifugation at 13,000 rpm for 20 min at 4° C. For mouse tissue lysates, fresh tissues were collected in 2 ml round-bottom Eppendorf tubes containing NP40 lysis buffer and cut to small pieces using scissors. Then the tissues were homogenized with a Bullet Blender homogenizer (Next Advanced Inc., Averill Park, NY), and centrifuged at 13,000 rpm for 20 min at 4° C. Western blot analyses were performed as previously described (Mar et al., 2018).

RNF5: human RING type E3 ligase expressed from lentiviral vector
Percent Infected R1 [1]: 96.1% | Z score R1 [1]: 0.1

RNF20: human RING type E3 ligase expressed from lentiviral vector
Percent Infected R1 [1]: 91.8% | Z score R1 [1]: 0.041

c1ccc(CNc2nc(NCc3ccccc3)c3ccccc3n2)cc1 [DBeQ]
rescue of CVB3-GFP infection in TRIM7-expressing cells [2]: failed to rescue | CVB3 infectivity in control HeLa-Fluc cells [2]: modestly reduced

MKRN2: human RING type E3 ligase expressed from lentiviral vector
Percent Infected R1 [1]: 93.3% | Z score R1 [1]: 0.06

CO/C1=C\C(C)=C\[C@@H](C)[C@@H](O)[C@@H](C)C/C(C)=C/C=C/[C@H](OC)[C@@H]([C@@H](C)[C@@H](O)[C@H](C)[C@@]2(O)C[C@@H](O)[C@H](C)[C@@H](C(C)C)O2)OC1=O [bafilomycin A1]
CVB3 infectivity in control HeLa-Fluc cells [2]: no impact | replication of vesicular stomatitis virus [3]: inhibited

TRIM21: human RING type E3 ligase expressed from lentiviral vector
Percent Infected R1 [1]: 65.7% | Z score R1 [1]: −0.291

RNF40: human RING type E3 ligase expressed from lentiviral vector
Percent Infected R1 [1]: 97.1% | Z score R1 [1]: 0.11

TRIM5: human RING type E3 ligase expressed from lentiviral vector
Percent Infected R1 [1]: 56.2% | Z score R1 [1]: −0.412

RNF126: human RING type E3 ligase expressed from lentiviral vector
Percent Infected R1 [1]: 94.5% | Z score R1 [1]: 0.08

TRIM25: human RING type E3 ligase expressed from lentiviral vector
Percent Infected R1 [1]: 53.7% | Z score R1 [1]: −0.444

RAD18: human RING type E3 ligase expressed from lentiviral vector
Percent Infected R1 [1]: 91.2% | Z score R1 [1]: 0.033

CC(C)C[C@@H](C=O)NC(=O)[C@H](CC(C)C)NC(=O)[C@H](CC(C)C)NC(=O)OCc1ccccc1 [MG132] (Cbz-Leu-Leu-Leu-aldehyde)
rescue of CVB3-GFP infection in TRIM7-expressing cells [2]: striking rescue | rescue of viral replication from transfected CVB3-GFP RNA [2]: rescued | CVB3 infectivity in control HeLa-Fluc cells [2]: modestly impaired | rescue of infection in TRIM7-expressing cells, late addition ([2]; added at later time points (post primary translation, >4 hours)): failed to rescue | HA-2BC protein in the presence of TRIM7 [4]: restored

CCN(CC)CCCC(C)Nc1ccnc2cc(Cl)ccc12 (centres unmarked) [chloroquine]
CVB3 infectivity in control HeLa-Fluc cells [2]: no impact | replication of vesicular stomatitis virus [3]: inhibited
